# What was measured:
# [1] = system: LL-37 release from human gingival epithelial cells; assay: Induction of anti-microbial peptides: LL-37 ELISA of supernatants; format: cell-based; details: for LL-37 (ng/ml) at 0.05% after 16 hrs: 0.05% test compound; for LL-37 (ng/ml) at 0.1% after 4 hrs: 0.1% test compound
# [2] = system: β-defensin release from human gingival epithelial cells; assay: Induction of anti-microbial peptides: β-defensin ELISA of supernatants; format: cell-based; details: 0.1% test compound
# [3] = Stability/discoloration of THDG and CHDG (neat, solution, saliva, dentifrice); format: physicochemical; details: for stability in saliva (discoloration): 24 h at 37° C., subject specific, saliva pH 6.5-8; for discoloration in dentifrice, CDC base: in 2 weeks; for Stability of neat materials: neat powders; for discoloration of solutions in DMSO/water: pH 6.1-6.5, after 4M at RT; for discoloration in dentifrice, silica base: in 1 week
# [4] = system: Actinomyces viscosus (ATCC # 43146); assay: Antibacterial growth inhibition (GI) assay; format: cell-based; details: 100 ppm, OD610 at 2, 4, 6, 24 h
# Description: An overnight culture of Actinomyces viscosus (ATCC # 43146) is diluted to an OD610˜0.2 in sterile trypticase soy broth (TSB) Nine mls of diluted Actinomyces viscosus is added to triplicate 15 mls sterile culture tubes for each sample or control tested. One ml of each analog was added to the corresponding culture tube and briefly vortexed. Cultures are incubated at 37° C. in a shaking water bath. Supernatants are removed at 2, 4, 6, and 24 h and the OD610 read. Results from triplicate samples were averaged and growth is plotted as a function of time.
# [5] = Vitro-Skin assay of potential uptake in skin; format: in vitro ADME
# Text: Using a commercial Vitro-Skin® assay to measure potential uptake in skin, we see uptake from all the formulations, but have better uptake in the Dical formulation than in the silica/SLS formulation (units in micrograms/cm^2): • 0.2% THDG/CDC: 4.9 • 0.2% THDG/HSLS: 0.6 • 0.2% CHDG/CDC: 4.4 • 0.2% CHDG/[…] • 0.3% Triclosan (positive control): 7.7
# LL-37 production = details: natural products with only one 1,2,3-trihydroxybenzene ring; cited from earlier work
compound,measurement,setting,value
"O=C(N[C@@H]1CCCC[C@H]1NC(=O)c1cc(O)c(O)c(O)c1)c1cc(O)c(O)c(O)c1 (relative stereo) [THDGA, trans-1,2-cyclohexane digallamide]",LL-37 (ng/ml) at 0.05% after 16 hrs,[1],130 ng/mL
same,LL-37 (ng/ml) at 0.1% after 4 hrs,[1],100 ng/mL
same,β-defensin (ng/ml) at 0.1% after 4 hrs,[2],1.5 ng/mL
"O=C(O[C@H]1CCCC[C@H]1OC(=O)c1cc(O)c(O)c(O)c1)c1cc(O)c(O)c(O)c1 [CHDG, cis-1,2-cyclohexanediol digallate]",LL-37 (ng/ml) at 0.05% after 16 hrs,[1],3700 ng/mL
same,LL-37 (ng/ml) at 0.1% after 4 hrs,[1],5200 ng/mL
same,β-defensin (ng/ml) at 0.1% after 4 hrs,[2],150 ng/mL
same,stability in saliva (discoloration),[3],no discoloration to deep green discoloration
same,"discoloration in dentifrice, CDC base",[3]; CDC base,slight discoloration
same,Stability of neat materials,[3],short term shelf stability acceptable
same,discoloration of solutions in DMSO/water,[3],no discoloration
same,"discoloration in dentifrice, silica base",[3]; silica base,moderate discoloration
"O=C(O[C@H]1CCC[C@H]1OC(=O)c1cc(O)c(O)c(O)c1)c1cc(O)c(O)c(O)c1 [CPDG, cis-1,2-cyclopentanediol digallate]",LL-37 (ng/ml) at 0.05% after 16 hrs,[1],160 ng/mL
same,LL-37 (ng/ml) at 0.1% after 4 hrs,[1],120 ng/mL
same,β-defensin (ng/ml) at 0.1% after 4 hrs,[2],0.5 ng/mL
"O=C(N[C@H]1CCCC[C@H]1NC(=O)c1cc(O)c(O)c(O)c1)c1cc(O)c(O)c(O)c1 [CHDGA, cis-1,2-cyclohexane digallamide]",LL-37 (ng/ml) at 0.05% after 16 hrs,[1],120 ng/mL
same,LL-37 (ng/ml) at 0.1% after 4 hrs,[1],100 ng/mL
same,β-defensin (ng/ml) at 0.1% after 4 hrs,[2],0.7 ng/mL
"O=C(O[C@@H]1Cc2c(O)cc(O)cc2O[C@@H]1c1cc(O)c(O)c(O)c1)c1cc(O)c(O)c(O)c1 [EGCG, epigallocatechin gallate, reference compound]",LL-37 (ng/ml) at 0.05% after 16 hrs,[1]; listed as EGCG (source Kenko),15 ng/mL
same,LL-37 (ng/ml) at 0.05% after 16 hrs,[1]; listed as EGCG (source TeaVigo),20 ng/mL
same,LL-37 (ng/ml) at 0.1% after 4 hrs,[1],160 ng/mL
same,β-defensin (ng/ml) at 0.1% after 4 hrs,[2],4.3 ng/mL
same,"time to discoloration in dentifrice, CDC base",[3]; CDC base,2 days
same,time to discoloration of solution in DMSO/water,"[3]; same conditions: DMSO/water, RT",< 1 week
same,"time to discoloration in dentifrice, silica base",[3]; silica base,2 days
same,antibacterial activity in bacterial culture,[4],modest antibacterial activity
CCCCOC(=O)c1cc(O)c(O)c(O)c1 [BG],LL-37 (ng/ml) at 0.05% after 16 hrs,[1],50 ng/mL
same,LL-37 (ng/ml) at 0.1% after 4 hrs,[1],100 ng/mL
same,β-defensin (ng/ml) at 0.1% after 4 hrs,[2],0 ng/mL
"O=C(O[C@@H]1CCCC[C@H]1OC(=O)c1cc(O)c(O)c(O)c1)c1cc(O)c(O)c(O)c1 (relative stereo) [THDG, trans-1,2 cyclohexanediol digallate]",LL-37 (ng/ml) at 0.05% after 16 hrs,[1],5900 ng/mL
same,LL-37 (ng/ml) at 0.1% after 4 hrs,[1],4100 ng/mL
same,β-defensin (ng/ml) at 0.1% after 4 hrs,[2],280 ng/mL
same,stability in saliva (discoloration),[3],no discoloration to deep green discoloration
same,"discoloration in dentifrice, CDC base",[3]; CDC base,slight discoloration
same,Stability of neat materials,[3],short term shelf stability acceptable
same,discoloration of solutions in DMSO/water,[3],no discoloration
same,"discoloration in dentifrice, silica base",[3]; silica base,moderate discoloration
same,uptake in Vitro-Skin from CDC formulation,[5]; 0.2 %,4.9 micrograms/cm^2
same,uptake in Vitro-Skin from HSLS formulation,[5]; 0.2 %,0.6 micrograms/cm^2
"Oc1cc(Cl)ccc1Oc1ccc(Cl)cc1Cl [Triclosan, triclosan, reference compound]","uptake in Vitro-Skin, positive control",[5]; 0.3% Triclosan,7.7 micrograms/cm^2
catechin gallate,potency in LL-37 production compared with EGCG,LL-37 production,significantly less potent
Oc1cc(O)c2c(c1)O[C@H](c1cc(O)c(O)c(O)c1)[C@H](O)C2 [epigallocatechin],potency in LL-37 production compared with EGCG,LL-37 production,significantly less potent
